Usually inhibition stands for the share of the control response that was lost under treatment.

Molecules are shown by their SMILES. In brackets after ≈: the same amount, converted by molar mass. Entries after “also recorded” stand apart in the source; their conditions may differ. Where two headings read alike, the source gives them in different places. Some results are limits rather than exact numbers.

The values that follow come from US6069132A, “Phosphazole compounds” (priority 1997, dated 2000).

One data set concerns TNFα. Nature of the data set: Inhibition of TNFα production in LPS-stimulated THP-1 cells (ELISA). The format is cell-based, human. As to conditions: for inhibition at 10 µg/mL / inhibition at 100 µg/mL / IC50: Homo sapiens; for inhibition at 10 µg/mL: 10 μg/mL; for inhibition at 10 µg/mL / inhibition at 100 µg/mL: THP-1, 6 h post-stimulation (FIG. 2), read-out: percent inhibition of TNFα production; for inhibition at 100 µg/mL: 100 μg/mL; for IC50: Table 2, LPS-stimulated THP-1, 6 h post-stimulation. Here is the method: Cell line. THP-1 cells (human monocyte) were maintained in RPMI 1640 medium containing 25 mM Hepes buffer, 2 mM L-glutamine, 50 units of penicillin per mL, 50 μg of streptomycin sulfate per mL, and 10% heat-inactivated fetal bovine serum (FBS) in a humidified incubator containing 5% CO2. The cells were split 1:4 weekly as recommended by the American Type Culture Collection (ATCC).
TNFα assay. Varying concentrations of the test compound or control compound were added to THP-1 cells plated at a density of 1×10^6cells/mL in 600 μL of 10% RPMI in a 48 well plate. After one hour the cells were stimulated with 0.5 μg of lipopolysaccharide (LPS; Sigma, lot number 43H40491) per mL. Six hours post-stimulation supernatants were collected and assayed for TNFα or IL-1β production using a commercially available cytokine detection ELISA (Enzyme Linked Immunosorbent Assay) kit according to the suppliers instructions. A suitable assay kit may be obtained from Biosource, or R and D systems. A novel xanthine analog, HWA-3138, having the structure (as shown below) was used as the control compound (30) in this study to monitor the response of the THP-l cells. Xanthine analogs are known inhibitors of TNFα but not IL-1β. In the following experiments compound HWA-3138 was used as a positive control. [drawing 58]
Time of Addition. Varying concentrations of test or control compounds were added to THP-1 cells (1×10^6 cells/mL) at different time points post-stimulation using 0.5 μg of LPS (Sigma, lot number 43H40491) per mL in 300 μL of 10% RPMI in a 48 well plate. Six hours post-stimulationsupernatants were collected and assayed for TNFα or IL-1β production using a Biosource cytokine detection ELISA (Enzyme Linked Immunosorbent Assay) kit according to the supplier's instructions.
The membrane bound TNFα was separated from the free TNFα in the culture medium at 6 hours post-LPS stimulation as follows: The corresponding cells were centrifuged at 3500 rpm (~1,000×g) for 6 min. The supernatants were removed and the cell pellets were then resuspended in 200 μL of 0.25 mM Tris-HCl (pH 7.4). The cell associated TNFα was prepared by freezing the cell suspension in dry ice/ethanol and thawing at 37° C. three times with Vortexing in-between freeze-thaw cycles. Each cycle was 4-5 min apart.
To determine the long-term effects of phosphazole compound T70241 on TNFα production after a single treatment, THP-1 cells were pre-incubated with T70241, washed and resuspended in drug free medium. The xanthine analog HWA-3138 was used as a control.
Background: An ELISA detects its analyte on a solid surface through an enzyme-linked reagent.

Data set [1] is described as follows: Cytotoxicity on static Vero cells. The class given is cell-based. Particulars: african green monkey, Table 4, 50% cell death (static cells), read-out: TC50 Static Vero. Here is the method:
(§1) Cell Culture. Vero (African Green Monkey kidney cells) and MRC-5 (diploid Human Embryonic Lung fibroblasts) cells were obtained from the American Type Culture Collection (ATCC) and were grown in minimal essential medium (MEM) with Earl's salts and glutamine (GIBCO BRL, Life Technologies, Inc.) with 10% heat inactivated fetal bovine serum (GIBCO BRL) and penicillin (100 μg/mL)/streptomycin (100 μg/mL).
(§2) Cytotoxicity Analysis. The cytotoxicity of the compound was assayed using few the CellTiter 96™ Aqueous Non-Radioactive Cell Proliferation (MTS) Assay (Promega). Briefly, viable cell number was determined by trypan blue staining and cells (MRC-5 and Vero) were resuspended in minimal essential medium (MEM) supplemented with 10% FBS (GIBCO). Eighty microliters of cell suspension (1.7×10^4 cells/well) was dispensed onto a 96-well microtiter plates. At this time 20 μL of drug (or control) was added to appropriate wells. Each concentration was assayed in quadruplicate. The plates were incubated at 37° C. in a humidified 5% CO2 atmosphere for 4 days and MTS assay was performed according to the manufacturer's instructions. The average absorbence of the sample was graphed for each concentration and the data obtained was used to calculate TC50 (the concentration necessary to give one-half maximum growth) for each compound.

A further data set concerns HSV-1. In words: HSV-1 CPE assay in Vero cells. The format is cell-based. As to conditions: Human alphaherpesvirus 1, Vero; Table 4.
Data set [2] can be described thus: Cytotoxicity on growing Vero cells (MTS). Particulars: african green monkey, Table 4, 50% inhibition of logphase growing cells, read-out: TC50 Growing Vero. The class given is cell-based. On the procedure:
as §1, §2

In a further data set the test system is HCMV (Town strain). Nature of the data set: HCMV plaque reduction (CPE) assay in MRC-5 cells. The class given is cell-based, human cytomegalovirus. Here is the method: The adenine analog phosphazole (compound T70241) was assayed for antiviral activity using a HCMV plaque reduction assay, in accordance with known methods such as that described in U.S. Pat. No. 5,446,045.
as §1
CMV Cytopathic Effect (CPE) Assay. Assays were performed essentially as described by Lewis et al. (111), which report is incorporated herein by reference. MRC-5 cells (100,000 cells/well) were seeded in 24-well plates overnight. Medium was then removed and wells were rinsed once with 250 μL of 2% FCS-MEM before adding 40-50 pfu of HCMV (Town strain) to each well. After 2 hours of virus adsorption, the medium was removed and the cells were rinsed once with 2% FCS-MEM. Varying concentrations of the phosphazole compound in the culture medium (1 mL) was then added to appropriate wells and plates were incubated for 5-6 days at 37° C. in a humidified 5% CO2 atmosphere. Each concentration was tested in duplicate wells.
The extent of the plaque reduction was quantitated by removing the media and adding 200 μL of 0.1% crystal violet in 20% methanol to all wells. The crystal violet was then removed after 10 min staining at room temperature by rinsing in the sink with tap water and the plates dried overnight. The plaques were then counted using a Nikon inverted microscope.

[3] abbreviates: lowest concentration tested, 6 h post-LPS (FIG. 4).

For the molecule `Nc1ncnc2pc[nH]c12` (centres unmarked) [T70241, 7-amino-1H-1,3-azaphospholo[4,5-d]pyrimidine], the “levels of cell associated and free TNFα” value in the data set on TNFα (6 hours post-LPS (FIG. 4)) is “able to reduce the levels of both cell associated and free TNFα”. Also, the inhibition at 10 µg/mL with TNFα was around 25%. Further, the inhibition at 100 µg/mL in the data set with TNFα is around 90%. Besides, the IC50 was 23.9 µg/mL (≈ 157 µM) with TNFα; above 50 µg/mL with HSV-1; around 8.25 µg/mL (≈ 54.2 µM) with HCMV (Town strain) (Human betaherpesvirus 5, MRC5, read-out: 50% inhibitory concentration (IC50), HCMV induced plaques); 8.08 µg/mL (≈ 53.1 µM) in the data set with HCMV (Town strain) (Human betaherpesvirus 5, MRC5, Table 4, read-out: IC50 HCMV). Also, in the data set on TNFα (compound added 5 hours post-LPS, read at 6 h (FIG. 3)), the “TNFα level on late addition” value is “significantly reduce the level of TNFα in the culture medium; also recorded: sharply inhibit the amount of cytokine in the culture”. For the same molecule, the “inhibition of TNFα production compared to control HWA-3138” value in the data set with TNFα (concentrations as little as 10 μg/mL (FIG. 2)) is reported as “inhibits TNFα production in these cells better than the control xanthine compound”. In addition, in the data set with TNFα (setting [3]), the “reduction of extracellular TNFα” value was “about 50%”. Further, the “reduction of membrane-bound (intracellular) TNFα” value in the data set with TNFα (setting [3]) is given as around 30%. Also, the “long-term inhibition of TNFα production after a single treatment” value in the data set on TNFα (pre-incubated, washed, drug free medium (FIG. 5)) is listed as “in a dose dependent fashion for 72 hours after the drug removal”. Moreover, the CC50 at 96 h in data set [1] and in data set [2] was above 50 µg/mL in each case. The “inhibition of HCMV virus production” value in the data set with HCMV (Town strain) (0.01-10 μg/mL) is “nearly logrithmic increase in inhibition of virus production”.

With `CCCCCn1cpc2ncnc(N)c21` (centres unmarked) [T70254, 7-Amino-1-(n-pentyl)-1,3-azaphospholo[4,5-d]pyrimidine], in the data set on TNFα (6 hours, LPS (FIG. 2)), the “inhibition of TNFα production by T70254” value is given as “significantly inhibits TNFα production in THP-1 cells”. Besides, the inhibition at 10 µg/mL in the data set on TNFα was around 30%. Besides, the inhibition at 100 µg/mL in the data set with TNFα was around 55%. Also, the IC50 with TNFα was 19.4 µg/mL (≈ 87.3 µM); in the data set on HSV-1, above 50 µg/mL; in the data set with HCMV (Town strain) (Human betaherpesvirus 5, MRC5, read-out: IC50 HCMV), above 50 µg/mL. For the same molecule, the CC50 at 96 h in data set [1] turned out to be 18.2 µg/mL (≈ 81.8 µM); in data set [2], 8.18 µg/mL (≈ 36.8 µM).
